Assay results published in patent US12497411B2, “Muscarinic acetylcholine receptor subtype 4 antagonists in the treatment of anemia” (COLD SPRING HARBOR LABORATORY, priority 2019, dated 2025).
pKi: −log10 of the molar value.

How the values were obtained:
[1] = target: T1, human recombinant CHRM2 receptor (Homo sapiens, UniProt P08172); assay: Radioligand binding assay, CHRM2; details: [3H]AF-DX 384 (2 nM), CHO cell membranes, 60 minutes at room temperature; read-out: Ki M2
T1 construct: expressed in transfected cells; host or cells: CHO cells (membranes)
T1 sequence (P08172 1-466): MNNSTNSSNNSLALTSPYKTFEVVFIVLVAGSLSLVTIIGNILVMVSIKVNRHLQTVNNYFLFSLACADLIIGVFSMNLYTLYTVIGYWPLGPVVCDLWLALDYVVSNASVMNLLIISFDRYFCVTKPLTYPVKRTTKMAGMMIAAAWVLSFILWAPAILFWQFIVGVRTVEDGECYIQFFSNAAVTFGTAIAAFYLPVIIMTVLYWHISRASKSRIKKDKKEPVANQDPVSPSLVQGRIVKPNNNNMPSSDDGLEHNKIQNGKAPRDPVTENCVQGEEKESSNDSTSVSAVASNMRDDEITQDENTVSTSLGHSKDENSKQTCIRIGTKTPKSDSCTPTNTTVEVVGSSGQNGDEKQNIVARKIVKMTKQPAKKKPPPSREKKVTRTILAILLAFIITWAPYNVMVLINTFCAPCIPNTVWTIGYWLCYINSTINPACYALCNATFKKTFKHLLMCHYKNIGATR
Description: (§1) PD102807 and Compounds A-K at concentrations of 1×10^−9 M, 1×10^−8 M, 1×10^−7 M, 1×10^−6 M, and 1×10^−5 M were tested in standard binding assays with radioligands and cell membranes with receptors. Compound binding was calculated as a percent inhibition of the binding of a radioactively labeled ligand specific for each target, and the Ki values were determined. For CHRM1, the binding assay was performed using [^3H]pirenzepine (2 nM) as a radioligand and membranes of CHO cells with human recombinant CHRM1 receptor. The incubation time was 60 minutes at room temperature. For CHRM2, the binding assay was performed using [^3H]AF-DX 384 (2 nM) as a radioligand and membranes of CHO cells with human recombinant CHRM2 receptor. The incubation time was also 60 minutes at room temperature. For CHRM3, the binding assay was performed using [^3H]4-DAMP (0.2 nM) as a radioligand and membranes of CHO cells with human recombinant CHRM3 receptor. The incubation time was also 60 minutes at room temperature. For CHRM4, the binding assay was performed using [^3H]4-DAMP (0.2 nM) as a radioligand and membranes of CHO cells with human recombinant CHRM4 receptor. The incubation time was also 60 minutes at room temperature. For CHRM5, the binding assay was performed using [^3H]4-DAMP (0.3 nM) as a radioligand and membranes of CHO cells with human recombinant CHRM5 receptor. The incubation time was also 60 minutes at room temperature.

[2] = target: T2, human recombinant CHRM1 receptor (Homo sapiens, UniProt P11229); assay: Radioligand binding assay, CHRM1; details: [3H]pirenzepine (2 nM), CHO cell membranes, 60 minutes at room temperature; read-out: Ki M1
T2 construct: expressed in transfected cells; host or cells: CHO cells (membranes)
T2 sequence (P11229 1-460): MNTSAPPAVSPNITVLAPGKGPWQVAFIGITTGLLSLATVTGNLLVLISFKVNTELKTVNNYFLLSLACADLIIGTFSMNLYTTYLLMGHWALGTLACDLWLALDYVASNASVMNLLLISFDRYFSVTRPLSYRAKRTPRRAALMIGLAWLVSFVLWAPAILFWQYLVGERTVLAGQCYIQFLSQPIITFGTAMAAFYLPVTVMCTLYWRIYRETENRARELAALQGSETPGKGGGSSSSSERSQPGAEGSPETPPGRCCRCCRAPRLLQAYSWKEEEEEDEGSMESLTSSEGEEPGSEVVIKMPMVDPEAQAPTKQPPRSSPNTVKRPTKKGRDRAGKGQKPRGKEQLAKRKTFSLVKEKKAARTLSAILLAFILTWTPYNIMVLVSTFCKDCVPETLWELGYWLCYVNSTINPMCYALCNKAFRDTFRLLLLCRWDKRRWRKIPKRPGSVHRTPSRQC
Description: as §1

[3] = target: T3, human recombinant CHRM5 receptor (Homo sapiens, UniProt P08912); assay: Radioligand binding assay, CHRM5; details: [3H]4-DAMP (0.3 nM), CHO cell membranes, 60 minutes at room temperature; read-out: Ki M5
T3 construct: expressed in transfected cells; host or cells: CHO cells (membranes)
T3 sequence (P08912 1-532): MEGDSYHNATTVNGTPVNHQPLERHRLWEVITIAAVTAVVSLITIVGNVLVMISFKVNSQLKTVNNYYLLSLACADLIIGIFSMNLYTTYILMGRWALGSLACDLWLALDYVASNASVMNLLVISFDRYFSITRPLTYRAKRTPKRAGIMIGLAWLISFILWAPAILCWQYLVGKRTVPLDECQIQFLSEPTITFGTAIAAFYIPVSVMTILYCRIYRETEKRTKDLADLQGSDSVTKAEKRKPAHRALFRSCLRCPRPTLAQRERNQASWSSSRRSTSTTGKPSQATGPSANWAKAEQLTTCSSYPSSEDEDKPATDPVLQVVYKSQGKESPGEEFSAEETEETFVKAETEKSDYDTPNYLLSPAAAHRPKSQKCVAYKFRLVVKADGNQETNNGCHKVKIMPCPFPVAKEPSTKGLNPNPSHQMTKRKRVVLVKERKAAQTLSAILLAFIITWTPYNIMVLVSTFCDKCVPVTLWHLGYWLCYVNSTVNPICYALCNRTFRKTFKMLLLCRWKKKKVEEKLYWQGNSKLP
Description: as §1

CHRM4 = target: T4, CHRM4 (Homo sapiens, UniProt P08173); assay: Radioligand binding assay, CHRM4; design: expressed in transfected cells; host or cells: CHO cells (membranes); details: [3H]4-DAMP (0.2 nM), CHO cell membranes, 60 minutes at room temperature; read-out: Ki M4
T4 sequence (P08173 1-479): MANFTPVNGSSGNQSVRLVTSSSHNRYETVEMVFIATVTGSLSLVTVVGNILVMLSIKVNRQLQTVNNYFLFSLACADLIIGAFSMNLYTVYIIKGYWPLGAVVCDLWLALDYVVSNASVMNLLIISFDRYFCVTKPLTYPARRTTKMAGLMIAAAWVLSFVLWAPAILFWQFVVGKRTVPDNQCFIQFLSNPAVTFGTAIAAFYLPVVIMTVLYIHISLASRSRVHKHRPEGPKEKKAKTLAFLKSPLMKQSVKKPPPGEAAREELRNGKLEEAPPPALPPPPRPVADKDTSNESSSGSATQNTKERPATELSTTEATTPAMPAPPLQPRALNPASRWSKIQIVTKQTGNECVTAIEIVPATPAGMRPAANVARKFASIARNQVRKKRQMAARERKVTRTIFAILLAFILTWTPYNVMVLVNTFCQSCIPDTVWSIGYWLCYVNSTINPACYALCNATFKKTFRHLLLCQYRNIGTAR
Description: as §1

[4] = tested on: PHZ induced hemolytic anemia in C57bl/6 mice; assay: PHZ induced hemolytic anemia mouse model, CBC; format: in vivo; details: 60 mg/kg phenylhydrazine
Description: Animal experiments were conducted in the Cold Spring Harbor Laboratory Animal Shared Resource in accordance with Institutional Animal Care and Use Committee-approved procedures. 4-6 weeks old C57bl/6 mice, purchased from Jackson Laboratory and randomly distributed into compound and control treatment groups, were given through oral delivery of PCS1055 (50 mg/kg or 100 mg/kg) twice per day or PD102807 (50 mg/kg or 100 mg/kg) once per day everyday for 3 days. On day 3, mice were intraperitoneally injected with 60 mg/kg PHZ. Mice were then given through oral delivery of PD102807 (50 mg/kg or 100 mg/kg) once per day every day for 2 days. Peripheral blood samples were collected retro-orbitally on day 6 using heparinized capillary tubes in blood collection tubes with K2-EDTA. CBC was performed using Hemavet 950. […] C57bl/6 mice were injected with 60 mg/kg phenylhydrazine to induce hemolysis. Mice were delivered with either vehicle control or Compound A or B (30 mg/kg or 100 mg/kg). Peripheral blood samples were collected retro-orbitally using heparinized capillary tubes into blood collection tubes with K2-EDTA. Complete blood counting was performed using Hemavet 950. Hematocrit (HCT), red blood cell (RBC) and hemoglobin (Hb) values are shown. […] C57bl/6 mice were injected with 60 mg/kg phenylhydrazine to induce hemolysis. Mice were delivered with subcutaneous injection with either vehicle control or Compound B (1.5 mg/kg, 3 mg/kg, or 5 mg/kg) or I (0.5 mg/kg, 0.7 mg/kg, or 1 mg/kg). Peripheral blood samples were collected retro-orbitally using heparinized capillary tubes into blood collection tubes with K2-EDTA. Complete blood counting was performed using Hemavet 950. Hematocrit (HCT), red blood cell (RBC) and hemoglobin (Hb) values are shown.

Structure (SMILES) | pKi [1] | pKi [2] | pKi [3] | pKi (CHRM4) | treatment of anemia in vivo (HCT, RBC, Hb) ([4]; subcutaneous injection, B 1.5, 3 or 5 mg/kg, I 0.5, 0.7 or 1 mg/kg) | treatment of anemia in vivo (HCT, RBC, Hb) ([4]; 30 mg/kg or 100 mg/kg, C57bl/6 mice)
CCOC(=O)c1c(C)n(C)c2ccc3c(c12)C[N+]1(C)CCc2cc(OC)ccc2C1O3 (single isomer, unassigned) [Compound I, 1-(ethoxycarbonyl)-9-methoxy-2,3,13-trimethyl-3,6a,11,12,13,14-hexahydroindolo[4′,5′:5,6][1,3]oxazino[2,3-a]isoquinolin-13-ium Iodide] | 5.77 | 5.07 | 5.00 | 6.13 | treat anemia in vivo | –
CCOC(=O)c1c(C)[nH]c2ccc3c(c12)C[N+]1(C)CCc2cc(OC)ccc2C1O3 (single isomer, unassigned) [Compound A, 1-(ethoxycarbonyl)-9-methoxy-2,13-dimethyl-3,6a,11,12,13,14-hexahydroindolo[4′,5′:5,6][1,3]oxazino[2,3-a]isoquinolin-13-ium Iodide] | 5.66 | – | 5.46 | 5.74 | – | treat anemia in vivo
